# Experimental data taken from patent publication US11802120B2, “Fused cyclic urea derivatives as CRHR2 antagonist” (RaQualia Pharma Inc., priority 2018, dated 2023).
# Molecular target: T1, human CRHR2-alpha (Homo sapiens, UniProt Q13324)
# T1 sequence (Q13324 1-411): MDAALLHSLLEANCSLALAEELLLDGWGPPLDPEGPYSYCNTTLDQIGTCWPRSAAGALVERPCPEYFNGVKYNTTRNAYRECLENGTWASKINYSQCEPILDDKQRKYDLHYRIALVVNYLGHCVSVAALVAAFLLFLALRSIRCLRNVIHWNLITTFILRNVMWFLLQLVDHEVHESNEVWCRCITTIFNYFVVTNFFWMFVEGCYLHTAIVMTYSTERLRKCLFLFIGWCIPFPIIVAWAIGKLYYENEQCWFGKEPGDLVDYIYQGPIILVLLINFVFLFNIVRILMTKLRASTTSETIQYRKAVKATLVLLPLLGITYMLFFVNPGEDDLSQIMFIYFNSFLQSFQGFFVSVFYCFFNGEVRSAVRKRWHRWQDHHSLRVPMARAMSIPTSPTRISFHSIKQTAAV
# Experiment: cAMP functional assay for human CRHR2 (LANCE Ultra cAMP, TR-FRET)
# Assay type: cell-based
# Settings: CHO-K1 cells expressing human CRHR2-alpha, agonist human urocortin2 at EC80, cAMP; read-out: IC50 against CRHR2
# Method in brief: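 CHO-K1 cells stably expressing each receptor, serum-starved and cryopreserved, were preincubated with compound 30 min at 25° C in HBSS buffer with 0.5 mM IBMX, pH 7.4, then stimulated 30 min with EC80 agonist (urocortin2 for CRHR2, CRF for CRHR1). cAMP read by TR-FRET; IC50 from percent-inhibition curves.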
row,IC50 [nM],SMILES
1,< 300,"Cc1ncc(Cl)cc1C(=O)N[C@H]1CC[C@H](Cn2c(=O)n(-c3ccn4cncc4c3)c3ccccc32)CC1 [Example 296, 5-chloro-N-((1r,4r)-4-((3-(imidazo[1,5-a]pyridin-7-yl)-2-oxo-2,3-dihydro-1H-benzo[d]imidazol-1-yl)methyl)cyclohexyl)-2-methylnicotinamide]"
2,< 300,"CNc1cnc(-n2c(=O)n(C[C@H]3CC[C@H](NC(=O)c4cc(Cl)cnc4C(F)(F)F)CC3)c3ccccc32)cn1 [Example 298, 5-chloro-N-((1r,4r)-4-((3-(5-(methylamino)pyrazin-2-yl)-2-oxo-2,3-dihydro-1H-benzo[d]imidazol-1-yl)methyl)cyclo-hexyl)-2-(trifluoromethyl) nicotinamide]"
3,< 300,"O=C(N[C@H]1CC[C@H](Cn2c(=O)n(-c3ccc(N[C@H]4CCOC4)nc3)c3ccccc32)CC1)c1cc(Cl)cnc1C(F)(F)F [Example 299, 5-chloro-N-((1S,4r)-4-((2-oxo-3-(6-(((S)-tetrahydro-furan-3-yl)amino)pyridin-3-yl)-2,3-dihydro-1H-benzo [d]imidazol-1-yl)methyl)cyclohexyl)-2-(trifluoro-methyl)nicotinamide]"
4,< 300,"O=C(N[C@H]1CC[C@H](Cn2c(=O)n(-c3ccc(N[C@@H]4CCOC4)nc3)c3ccccc32)CC1)c1cc(Cl)cnc1C(F)(F)F [Example 300, 5-chloro-N-((1R,4r)-4-((2-oxo-3-(6-(((R)-tetrahydro-furan-3-yl)amino)pyridin-3-yl)-2,3-dihydro-1H-benzo [d]imidazol-1-yl)methyl)cyclohexyl)-2-(trifluoro-methyl)nicotinamide]"
5,< 300,"O=C(N[C@H]1CC[C@H](Cn2c(=O)n(-c3ccc(OCCO)nc3)c3ccccc32)CC1)c1cc(Cl)cnc1C(F)(F)F [Example 301, 5-chloro-N-((1r,4r)-4-((3-(6-(2-hydroxyethoxy)pyridin-3-yl)-2-oxo-2,3-dihydro-1H-benzo[d]imidazol-1-yl)methyl)cyclohexyl)-2-(trifluoromethyl)nicotinamide]"
6,< 300,"Cc1ccc(-n2c(=O)n(C[C@H]3CC[C@H](NC(=O)c4cc(Cl)cnc4C(F)(F)F)CC3)c3cccc(C)c32)cn1 [Example 302, 5-chloro-N-((1r,4r)-4-((4-methyl-3-(6-methylpyridin-3-yl)-2-oxo-2,3-dihydro-1H-benzo[d]imidazol-1-yl)methyl)cyclohexyl)-2-(trifluoromethyl)nicotinamide]"
7,< 300,"Cn1cc(CCn2c(=O)n(C[C@H]3CC[C@H](NC(=O)c4cc(Cl)cnc4C(F)(F)F)CC3)c3ccccc32)cn1 [Example 303, 5-chloro-N-((1r,4r)-4-((3-(2-(1-methyl-1H-pyrazol-4-yl)ethyl)-2-oxo-2,3-dihydro-1H-benzo[d]imidazol-1-yl)methyl)cyclohexyl)-2-(trifluoromethyl)nicotinamide]"
8,< 300,"CCn1nnc2cc(-n3c(=O)n(C[C@H]4CC[C@H](NC(=O)c5cc(Cl)cnc5C)CC4)c4ccccc43)ccc21 [Example 304, 5-chloro-N-((1r,4r)-4-((3-(1-ethyl-1H-benzo[d][1,2,3]triazol-5-yl)-2-oxo-2,3-dihydro-1H-benzo[d]imidazol-1-yl)methyl)cyclo-hexyl)-2-methylnicotinamide]"
9,< 300,"Cc1ncc(Cl)cc1C(=O)N[C@H]1CC[C@H](Cn2c(=O)n(-c3ccc4c(=O)[nH]cnc4c3)c3ccccc32)CC1 [Example 305, 5-chloro-2-methyl-N-((1r,4r)-4-((2-oxo-3-(4-oxo-3,4-dihydroquinazolin-7-yl)-2,3-dihydro-1H-benzol[d]imidazol-1-yl)methyl)cyclohexyl)nicotinamide]"
10,< 300,"Cc1ncc(Cl)cc1C(=O)N[C@H]1CC[C@H](Cn2c(=O)n(-c3ccc(C=O)cc3C#N)c3ccccc32)CC1 [Example 306, 5-chloro-N-((1r,4r)-4-((3-(2-cyano-4-formylphenyl)-2-oxo-2,3-dihydro-1H-benzo[d]imidazol-1-yl)methyl)cyclo-hexyl)-2-methylnicotinamide]"
11,< 300,"Cc1ncc(Cl)cc1C(=O)N[C@H]1CC[C@H](Cn2c(=O)n(-c3cc(Br)ccc3C#N)c3ccccc32)CC1 [Example 307, N-((1r,4r)-4-((3-(5-bromo-2-cyanophenyl)-2-oxo-2,3-dihydro-1H-benzo[d]imidazol-1-yl)methyl)cyclohexyl)-5-chloro-2-methylnicotinamide]"
12,< 300,"Cc1cc(C#N)c(-n2c(=O)n(C[C@H]3CC[C@H](NC(=O)c4cc(Cl)cnc4C)CC3)c3ccccc32)cn1 [Example 308, 5-chloro-N-((1r,4r)-4-((3-(4-cyano-6-methylpyridin-3-yl)-2-oxo-2,3-dihydro-1H-benzo[d]imidazol-1-yl)methyl)cyclohexyl)-2-methylnicotinamide]"
13,< 300,"Cc1ncc(Cl)cc1C(=O)N[C@H]1CC[C@H](Cn2c(=O)n(-c3cccc(N(C)C)c3C#N)c3ccccc32)CC1 [Example 309, 5-choro-N-((1r,4r)-4-((3-(2-cyano-3-(dimethylamino)phenyl)-2-oxo-2,3-dihydro-1H-benzo[d]imidazol-1-yl)methyl)cyclohexyl)-2-methylnicotinamide]"
14,< 300,"COCCNc1cc(C#N)c(-n2c(=O)n(C[C@H]3CC[C@H](NC(=O)c4cc(Cl)cnc4C)CC3)c3ccccc32)cn1 [Example 310, 5-chloro-N-((1r,4r)-4-((3-(4-cyano-6-((2-methoxyethyl)amino)pyridin-3-yl)-2-oxo-2,3-dihydro-1H-benzo[d]imidazol-1-yl)methyl)cyclohexyl)-2-methylnicotinamide]"
15,< 300,"N#Cc1ccncc1-n1c(=O)n(C[C@H]2CC[C@H](NC(=O)c3cc(Cl)cnc3C(F)(F)F)CC2)c2ccccc21 [Example 311, 5-chloro-N-((1r,4r)-4-((3-(4-cyanopyridin-3-yl)-2-oxo-2,3-dihydro-1H-benzo[d]imidazol-1-yl)methyl)cyclo-hexyl)-2-(trifluoromethyl) nicotinamide]"
16,< 300,"N#Cc1cccnc1-n1c(=O)n(C[C@H]2CC[C@H](NC(=O)c3cc(Cl)cnc3C(F)(F)F)CC2)c2ccccc21 [Example 312, 5-chloro-N-((1r,4r)-4-((3-(3-cyanopyridin-2-yl)-2-oxo-2,3-dihydro-1H-benzo[d]imidazol-1-yl)methyl)cyclo-hexyl)-2-(trifluoromethyl) nicotinamide]"
17,< 300,"CNC(=O)c1cc(C)c(-n2c(=O)n(C[C@H]3CC[C@H](NC(=O)c4cc(Cl)cnc4C(F)(F)F)CC3)c3ccccc32)cn1 [Example 313, 5-(3-(((1r,4r)-4-(5-chloro-2-(trifluoromethyl)nico-tinamido)cyclohexyl)methyl)-2-oxo-2,3-dihydro-1H-benzo[d]imidazol-1-yl)-N,4-dimethylpicolinamide]"
18,< 300,"O=C(N[C@H]1CC[C@H](Cn2c(=O)n(Cc3cscn3)c3ccccc32)CC1)c1cc(Cl)cnc1C(F)(F)F [Example 314, 5-chloro-N-((1r,4r)-4-((2-oxo-3-(thiazol-4-ylmethyl)-2,3-dihydro-1H-benzo[d]imidazol-1-yl)methyl)cyclo-hexyl)-2-(trifluoromethyl) nicotinamide]"
19,< 300,"Cc1ccc(-n2c(=O)n(C[C@H]3CC[C@H](NC(=O)c4cc(Cl)cnc4C(F)(F)F)CC3)c3ccccc32)c(C)n1 [Example 315, 5-chloro-N-((1r,4r)-4-((3-(2,6-dimethylpyridin-3-yl)-2-oxo-2,3-dihydro-1H-benzo [d]imidazol-1-yl)methyl)cyclohexyl)-2-(trifluoro-methyl)nicotinamide]"
20,< 300,"Cc1cc(-n2c(=O)n(C[C@H]3CC[C@H](NC(=O)c4cc(Cl)cnc4C(F)(F)F)CC3)c3ccccc32)ccn1 [Example 316, 5-chloro-N-((1r,4r)-4-((3-(2-methylpyridin-4-yl)-2-oxo-2,3-dihydro-1H-benzo [d]imidazol-1-yl)methyl)cyclohexyl)-2-(trifluoro-methyl)nicotinamide]"
21,< 300,"CNC(=O)c1ccc(-n2c(=O)n(C[C@H]3CC[C@H](NC(=O)c4cc(Cl)cnc4C4CC4)CC3)c3ccccc32)cn1 [Example 317, 5-(3-(((1r,4r)-4-(5-chloro-2-cyclopropylnicotinamido)cyclohexyl)methyl)-2-oxo-2,3-dihydro-1H-benzo[d]imidazol-1-yl)-N-methyl-picolinamide]"
22,< 300,"Cc1ncc(Cl)cc1C(=O)N[C@H]1CC[C@H](Cn2c(=O)n(-c3cccnc3C(F)(F)F)c3ccccc32)CC1 [Example 318, 5-chloro-2-methyl-N-((1r,4r)-4-((2-oxo-3-(2-(trifluoro-methyl)pyridin-3-yl)-2,3-dihydro-1H-benzo[d]imidazol-1-yl)methyl)cyclohexyl) nicotinamide]"
23,< 300,"Cc1ncc(Cl)cc1C(=O)N[C@H]1CC[C@H](Cn2c(=O)n(-c3cnc4c(N)ncnc4c3)c3ccccc32)CC1 [Example 319, N-((1r,4r)-4-((3-(4-aminopyrido[3,2-d]pyrimidin-7-yl)-2-oxo-2,3-dihydro-1H-benzo[d]imidazol-1-yl)methyl)cyclohexyl)-5-chloro-2-methylnicotinamide]"
24,< 300,"Cc1ncc(Cl)cc1C(=O)N[C@H]1CC[C@H](Cn2c(=O)n(-c3ccncc3C(F)(F)F)c3ccccc32)CC1 [Example 320, 5-chloro-2-methyl-N-((1r,4r)-4-((2-oxo-3-(3-(trifluoro-methyl)pyridin-4-yl)-2,3-dihydro-1H-benzo[d]imidazol-1-yl)methyl)cyclohexyl) nicotinamide]"
